Measurements taken from article PMC8808171, “Nonselective TRPC channel inhibition and suppression of aminoglycoside-induced premature termination codon readthrough by the small molecule AC1903” (The Journal of Biological Chemistry, 2022).
“Also recorded” adds a separate entry of the source.

What was measured:
Type in all cases: cell-based
TRPC4–C1 = assay: [Ca2+]i recordings (Fura-2), concatemeric TRPC4–C1 in HEK T-REx cells; conditions: activator EA (30 nM)
Method: (§1) Based on the findings described above, we wondered whether AC1903—which is typically used as a TRPC5 inhibitor at concentrations of 30–100 μM in cellular assays ([29], [56])—might have limited selectivity for TRPC5 channels and whether its effect on intracellular G418 levels and PTC readthrough might be the consequence of inhibition of other or multiple targets. All well-characterized TRPC channel inhibitors reported to date modulate multiple TRP(C) channels ([34], [35], [36]). […] Because limited data for the selectivity of AC1903 are available in the public domain, we decided to profile AC1903 against a selection of calcium-permeable cation channels by intracellular calcium ([Ca^2+]i) recordings using well-characterized cell lines and TRP channel activators ([46], [57], [58]), and the Ca^2+ indicator Fura-2. In these assays, cells (HEK 293, HEK T-REx, or CHO) overexpressing the relevant ion channel protein and loaded with Fura-2 AM (a cell-permeable precursor of Fura-2) were preincubated with various concentrations of AC1903 or vehicle (DMSO) for 30 min. Then, changes in ratiometric fluorescence (from background) were recorded upon addition of the respective ion channel activator.
HEK T-REx cells expressing tetracycline-inducible TRPC4, TRPC5, TRPC5–C1,TRPC4–C1, and hPiezo1 have been described previously ([46], [57], [59], [78]). […]

TRPV1:V1 = target: T1, TRPV1:V1 (Rattus norvegicus, UniProt O35433); assay: [Ca2+]i recordings (Fura-2), TRPV1:V1 in HEK 293 cells
T1 construct: expressed in transfected cells; host or cells: WT HEK 293 (transient)
T1 sequence (O35433 whole entry): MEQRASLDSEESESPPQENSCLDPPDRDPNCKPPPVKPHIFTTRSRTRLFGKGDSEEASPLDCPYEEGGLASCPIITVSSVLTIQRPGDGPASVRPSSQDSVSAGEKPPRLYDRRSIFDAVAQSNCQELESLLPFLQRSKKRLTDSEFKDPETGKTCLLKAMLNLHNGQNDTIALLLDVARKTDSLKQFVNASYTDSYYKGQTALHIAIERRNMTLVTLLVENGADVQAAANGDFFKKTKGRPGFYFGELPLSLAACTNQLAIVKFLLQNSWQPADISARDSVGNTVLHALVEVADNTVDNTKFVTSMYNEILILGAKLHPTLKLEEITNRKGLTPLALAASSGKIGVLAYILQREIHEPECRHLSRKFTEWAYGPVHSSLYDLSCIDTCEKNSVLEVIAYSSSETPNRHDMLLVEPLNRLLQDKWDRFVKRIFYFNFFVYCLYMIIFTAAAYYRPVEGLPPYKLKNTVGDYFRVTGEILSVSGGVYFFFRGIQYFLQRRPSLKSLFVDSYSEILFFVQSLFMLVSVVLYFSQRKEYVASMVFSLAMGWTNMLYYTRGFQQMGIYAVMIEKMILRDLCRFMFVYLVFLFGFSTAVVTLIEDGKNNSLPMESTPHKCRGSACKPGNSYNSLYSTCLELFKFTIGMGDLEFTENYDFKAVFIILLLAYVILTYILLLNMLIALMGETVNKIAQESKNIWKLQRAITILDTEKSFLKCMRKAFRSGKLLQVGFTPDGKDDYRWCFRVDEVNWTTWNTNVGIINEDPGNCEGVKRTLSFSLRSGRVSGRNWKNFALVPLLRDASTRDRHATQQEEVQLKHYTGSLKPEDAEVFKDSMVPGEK
Method: as §1
HEK T-REx cells expressing tetracycline-inducible TRPC4, TRPC5, TRPC5–C1,TRPC4–C1, and hPiezo1 have been described previously ([46], [57], [59], [78]). Cloning of TRPC3 has been described previously ([79]). To create cells stably expressing tetracycline-inducible TRPC3, HEK T-REx cells were transfected with pcDNA4/TO/hTRPC3 using jetPRIME transfection reagent (VWR) according to manufacturer’s instructions. After 48 h cells were put under antibiotic selection using 400 μg/ml zeocin and 10 μg/ml Blasticidin S (Invivogen)). Medium changes were carried out every 2 to 3 days to remove dead cells. […]

A498 cells = assay: EA-mediated A498 cytotoxicity (WST-1 cell viability assay); conditions: AC1903 100 μM; 100 nM EA; 8 h
Method: Cell viability assays were carried out using WST-1 Cell Proliferation Reagent (Merck). A498 cells were plated onto clear 96-well plates at 4000 cells per well and left to adhere for 24 h. Media was then removed, and replaced with fresh media containing 100 nM EA, in presence of either DMSO or 0.1 to 100 μM AC1903. Control wells were treated with vehicle (DMSO) only. To exclude any potential cytotoxic effects of AC1903 itself, cells were incubated with 0.1 to 100 μM AC1903 in absence of EA. Cells were treated in triplicate. Cells were incubated with compounds for 8 h. After 8 h, treatment media was removed and media containing WST-1 reagent (10 μl reagent +100 μl media per well) was added to each well and incubated for 1.5 h at 37 °C. Blank wells contained media and WST-1 reagent (no cells). […] Absorbance was then read at 440 nm and 650 nm (reference wavelength). To analyze data, the value of the 650 nm was subtracted from that of the 440 nm reading. Values across triplicate wells were averaged, and the value from the blank wells subtracted to account for background absorbance. […]
Inhibition of G418-induced premature stop codon readthrough
A498 cytotoxicity . […] Cell viability was calculated as % of control, and the effect of AC1903 was compared to control (0 µM ) (scatter plots showing data from three independent experiments; bars represent mean ± SD; n = 3). […]

c1ccc(Cn2c(NCc3ccco3)nc3ccccc32)cc1 [AC1903]
IC50 (TRPC4–C1): 3000 nM
effect on capsaicin-activated TRPV1 (TRPV1:V1; AC1903 100 μM): small effects
inhibition of capsaicin-activated TRPV1 (TRPV1:V1; AC1903 up to 30 μM): does not affect; also recorded: did not inhibit
IC50 (TRPV1:V1; HEK 293, activator capsaicin (500 nM)): > 50000 nM
effect on EA-mediated A498 cytotoxicity (A498 cells): inhibits EA-mediated; also recorded: inhibited EA-mediated A498 cytotoxicity
